From US20260109699A1, “AZOLE DERIVATIVES AS SHP2 INHIBITORS” (IRBM S.P.A., priority 2022, published 2026) come the findings set out here.

Experiment [1] has as its system phospho-ERK1/2 (Thr202/Tyr204). Nature of the experiment: Phospho-ERK cellular assay. The format is cell-based. Conditions: Homo sapiens; KYSE-520 cells, 2 h at 37° C, TR-FRET; read-out: pERK IC50. On the procedure: ERK phosphorylation was detected using the “Advanced phospho-ERK1/2 (Thr202/Tyr204)” TR-FRET kit (Cisbio, Cat #64AERPEG/H), following the manufacturer reagents and instructions.
Briefly, 20.000/well KYSE-520 cells (DSMZ ACC 371) were plated in 6 μL RPMI-1640 (Invitrogen) growth medium, into 384 white low-volume high base TC microplates (Greiner). After an overnight incubation, cells were treated with DMSO serial diluted compounds and incubated for 2 h at 37° C. After incubation, 2 μL/well of 4×Lysis Buffer (Cisbio 64KL1FDF), were added and incubated with cells for 30 min on gentle shaking. Finally, lysates were added with 2 μL/well of Eu cryptate (donor) and D2 (acceptor) conjugated antibodies (as provided by the Cisbio kit #64AERPEG/H) diluted 1:100 in Detection Buffer (as provided by the Cisbio kit #64AERPEG/H). Plates were then sealed and incubated at rt in the dark. After an overnight incubation, the TR-FRET signal was detected on a suitable reader (Envision, PerkinElmer).
The lower the TR-FRET signal the higher the higher the SHP2 inhibition in cells.
The activity of each compound dilution was calculated as percentage between vehicle DMSO treated cells and no cells, 0% inhibition and 100% inhibition respectively. The percentage activity is fitted against the compound dilutions with a four-parameter logistic regression. The inflection point (i.e. the concentration at which half-maximal inhibition is achieved) is the IC50.
Legend: “+” indicates IC50 equal or higher than 0.5 μM; “++” indicates IC50 less than 0.5 μM and higher or equal to 0.1 μM; “+++” indicates IC50 less than 0.1 μM.
On the technique in general: Time-resolved FRET reads energy transfer from a long-lived donor to a nearby acceptor.

The target in experiment [2] is T1, SHP-2 enzyme (Met1-Leu525), SHP2wt (Homo sapiens, UniProt Q06124).
T1 construct: synthetized by Origene, Met1-Leu525, cat #TP750155; purchased Origene TP750155
T1 sequence (Q06124 1-525): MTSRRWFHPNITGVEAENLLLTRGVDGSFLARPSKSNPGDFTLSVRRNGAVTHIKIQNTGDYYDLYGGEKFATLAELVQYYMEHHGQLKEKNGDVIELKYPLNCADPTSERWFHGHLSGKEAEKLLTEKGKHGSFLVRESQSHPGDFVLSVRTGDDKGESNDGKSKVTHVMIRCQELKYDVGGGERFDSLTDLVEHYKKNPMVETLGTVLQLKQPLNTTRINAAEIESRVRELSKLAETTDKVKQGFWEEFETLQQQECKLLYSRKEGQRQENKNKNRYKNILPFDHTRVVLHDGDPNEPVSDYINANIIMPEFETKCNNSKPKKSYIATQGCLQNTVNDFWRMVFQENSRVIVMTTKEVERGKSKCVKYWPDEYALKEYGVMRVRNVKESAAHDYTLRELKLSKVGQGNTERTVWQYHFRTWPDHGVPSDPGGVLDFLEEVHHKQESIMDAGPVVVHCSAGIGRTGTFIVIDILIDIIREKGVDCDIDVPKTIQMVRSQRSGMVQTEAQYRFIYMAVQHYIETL
In words: SHP2 inhibition enzymatic assay. In kind it is biochemical. The conditions noted are these: 0.5 nM SHP-2 activated by 500 nM IRS1 peptide, 75 μM DiFMUP substrate. The procedure:
The assay was performed as described in YP Chen et al, Nature (535) 2016. Assay volume of 20 μL/well was assembled in 384 well black polystyrene low-binding microplates (Greiner), using the following buffer: 60 mM HEPES pH 7.2, 75 mM NaCl, 75 mM KCl, 1 mM EDTA pH 8, 0.05% tween-20, 5 mM DTT. The SHP-2 enzyme (synthetized by Origene, Met1-Leu525, cat #TP750155) was used at a final concentration of 0.5 nM. The enzyme was activated by 500 nM IRS1 peptide (sequence: H2N-LN(pY)IDLDLV(dPEG8)LST(pY)ASINFQK-amide; Wang et al., iScience 25,104009, Apr. 15, 2022, https://doi.org/10.1016/j.isci.2022.104009) and incubated with 75 μM DiFMUP (Sigma) as substrate.
Briefly, DMSO serially diluted testing compounds were transferred to the bottom of the assay plate. SHP2 was then added together with the IRS1 peptide 30 min post incubation, the DiFMUP substrate was added to the reaction and incubated 30 min at rt. Finally 5 μL of 160 μM bpV (potassium bisperoxo[1,10-phenanthroline]oxovanadate [V], Sigma) were added to stop and quench the reaction. The fluorescence was detected by a microplate reader (Envision, PerkinElmer) according to the DiFMUP excitation and emission wavelength. The lower the fluorescence the higher the SHP2 inhibition.
The activity of each compound dilution was calculated as percentage of inhibition between vehicle (DMSO, 0% inhibition) and no enzyme (100% inhibition). The percentage inhibition is fitted against the compound dilutions with a four-parameter logistic regression. The inflection point (i.e. the concentration at which half-maximal inhibition is achieved) is the IC50.
Legend: A indicates IC50 less or equal to 0.05 μM; B indicates IC50 greater than 0.05 μM and lower or equal to 0.3 μM.

Molecules are shown by their SMILES.

By IC50 is commonly meant the point on the concentration scale where inhibition reaches its midpoint.

For `N[C@@H]1c2ccnn2CC12CCN(c1cnc(Sc3cccc4c3CCC4)cn1)CC2` [Example 46, (S)-1-(5-((2,3-dihydro-1H-inden-4-yl)thio)pyrazin-2-yl)-4′H,6′H-spiro[piperidine-4,5′-pyrrolo[1,2-b]pyrazol]-4′-amine], the IC50 in experiment [1] is < 100 nM; in experiment [2], ≤ 50 nM.

As to `Cc1cccc(Sc2cnc(N3CCC4(CC3)Cn3nccc3[C@H]4N)cn2)c1C` [Example 47, (S)-1-(5-((2,3-dimethylphenyl)thio)pyrazin-2-yl)-4′H,6′H-spiro[piperidine-4,5′-pyrrolo[1,2-b]pyrazol]-4′-amine], the IC50 was < 100 nM in experiment [1] and ≤ 50 nM in experiment [2].

With `N[C@@H]1c2ccnn2CC12CCN(c1cnc(Sc3cc(F)ccc3F)cn1)CC2` [Example 48, (S)-1-(5-((2,5-difluorophenyl)thio)pyrazin-2-yl)-4′H,6′H-spiro[piperidine-4,5′-pyrrolo[1,2-b]pyrazol]-4′-amine], the IC50 was < 100 nM in experiment [1] and ≤ 50 nM in experiment [2].

Take `N[C@@H]1c2ccnn2CC12CCN(c1cnc(Sc3ccc(F)c(F)c3F)cn1)CC2` [Example 49, (S)-1-(5-((2,3,4-trifluorophenyl)thio)pyrazin-2-yl)-4′H,6′H-spiro[piperidine-4,5′-pyrrolo[1,2-b]pyrazol]-4′-amine]: the IC50 in experiment [1] was < 100 nM; in experiment [2] it was ≤ 50 nM.

For the compound `N[C@@H]1c2ccnn2CC12CCN(c1cnc(Sc3cc(F)cc(F)c3)cn1)CC2` [Example 50, (S)-1-(5-((3,5-difluorophenyl)thio)pyrazin-2-yl)-4′H,6′H-spiro[piperidine-4,5′-pyrrolo[1,2-b]pyrazol]-4′-amine], the IC50 in experiment [1] was < 100 nM; in experiment [2], ≤ 50 nM.

Turning to `N[C@@H]1c2ccnn2CC12CCN(c1cnc(Sc3cccc(F)c3)cn1)CC2` [Example 51, (S)-1-(5-((3-fluorophenyl)thio)pyrazin-2-yl)-4′H,6′H-spiro[piperidine-4,5′-pyrrolo[1,2-b]pyrazol]-4′-amine], the results for the IC50 in experiment [1] and in experiment [2] were 100 to 500 nM and ≤ 50 nM, respectively.

Take `N[C@@H]1c2ccnn2CC12CCN(c1cnc(Sc3cccc4c3COC4)cn1)CC2` [Example 52, (S)-1-(5-((1,3-dihydroisobenzofuran-4-yl)thio)pyrazin-2-yl)-4′H,6′H-spiro[piperidine-4,5′-pyrrolo[1,2-b]pyrazol]-4′-amine]: the IC50 in experiment [1] is < 100 nM; in experiment [2] it was ≤ 50 nM.

As for `N[C@@H]1c2ccnn2CC12CCN(c1cnc(Sc3cccc(F)c3F)cn1)CC2` [Example 53, (S)-1-(5-((2,3-difluorophenyl)thio)pyrazin-2-yl)-4′H,6′H-spiro[piperidine-4,5′-pyrrolo[1,2-b]pyrazol]-4′-amine], the values for the IC50 in experiment [1] and in experiment [2] were < 100 nM and ≤ 50 nM, respectively.

With `N[C@@H]1c2ccnn2CC12CCN(c1cnc(Sc3ccnc(C(F)(F)F)c3Cl)cn1)CC2` [Example 54, (S)-1-(5-((3-chloro-2-(trifluoromethyl)pyridin-4-yl)thio)pyrazin-2-yl)-4′H,6′H-spiro[piperidine-4,5′-pyrrolo[1,2-b]pyrazol]-4′-amine], the results for the IC50 in experiment [1] and in experiment [2] were < 100 nM and ≤ 50 nM, respectively.

`COc1c(F)ccc(Sc2cnc(N3CCC4(CC3)Cn3nccc3[C@H]4N)cn2)c1F` [Example 55, (S)-1-(5-((2,4-difluoro-3-methoxyphenyl)thio)pyrazin-2-yl)-4′H,6′H-spiro[piperidine-4,5′-pyrrolo[1,2-b]pyrazol]-4′-amine]: the values for the IC50 in experiment [1] and in experiment [2] were < 100 nM and ≤ 50 nM, respectively.

On to `N[C@@H]1c2ccnn2CC12CCN(c1cnc(Sc3cccc(Cl)c3C(F)(F)F)cn1)CC2` [Example 56, (S)-1-(5-((3-chloro-2-(trifluoromethyl)phenyl)thio)pyrazin-2-yl)-4′H,6′H-spiro[piperidine-4,5′-pyrrolo[1,2-b]pyrazol]-4′-amine], for which the IC50 is < 100 nM in experiment [1] and ≤ 50 nM in experiment [2].

In the case of `Cc1c(F)cccc1Sc1cnc(N2CCC3(CC2)Cn2nccc2[C@H]3N)cn1` [Example 57, (S)-1-(5-((3-fluoro-2-methylphenyl)thio)pyrazin-2-yl)-4′H,6′H-spiro[piperidine-4,5′-pyrrolo[1,2-b]pyrazol]-4′-amine], the concentration for half-maximal inhibition (IC50) was < 100 nM in experiment [1] and ≤ 50 nM in experiment [2].

As for `N[C@@H]1c2ccnn2CC12CCN(c1cnc(Sc3cccc(C(F)F)c3F)cn1)CC2` [Example 58, (S)-1-(5-((3-(difluoromethyl)-2-fluorophenyl)thio)pyrazin-2-yl)-4′H,6′H-spiro[piperidine-4,5′-pyrrolo[1,2-b]pyrazol]-4′-amine], the figures for the IC50 in experiment [1] and in experiment [2] were < 100 nM and ≤ 50 nM, respectively.

Regarding `N[C@@H]1c2ccnn2CC12CCN(c1cnc(Sc3ccc(C(F)F)cc3F)cn1)CC2` [Example 59, (S)-1-(5-((4-(difluoromethyl)-2-fluorophenyl)thio)pyrazin-2-yl)-4′H,6′H-spiro[piperidine-4,5′-pyrrolo[1,2-b]pyrazol]-4′-amine], the values for the IC50 in experiment [1] and in experiment [2] were 100 to 500 nM and ≤ 50 nM, respectively.

Take `COc1cccc(Sc2cnc(N3CCC4(CC3)Cn3nccc3[C@H]4N)cn2)c1F` [Example 60, (S)-1-(5-((2-fluoro-3-methoxyphenyl)thio)pyrazin-2-yl)-4′H,6′H-spiro[piperidine-4,5′-pyrrolo[1,2-b]pyrazol]-4′-amine]: the IC50 is < 100 nM in experiment [1] and ≤ 50 nM in experiment [2].

Consider `N[C@@H]1c2ccnn2CC12CCN(c1cnc(Sc3cccc4ncccc34)cn1)CC2` [Example 61, (S)-1-(5-(quinolin-5-ylthio)pyrazin-2-yl)-4′H,6′H-spiro[piperidine-4,5′-pyrrolo[1,2-b]pyrazol]-4′-amine], for which the IC50 is < 100 nM in experiment [1] and ≤ 50 nM in experiment [2].

Turning to `Cc1c(Cl)cncc1Sc1cnc(N2CCC3(CC2)Cn2nccc2[C@H]3N)cn1` [Example 62, (S)-1-(5-((5-chloro-4-methylpyridin-3-yl)thio)pyrazin-2-yl)-4′H,6′H-spiro[piperidine-4,5′-pyrrolo[1,2-b]pyrazol]-4′-amine], the IC50 in experiment [1] was 100 to 500 nM; in experiment [2], ≤ 50 nM.

Turning to `N[C@@H]1c2ccnn2CC12CCN(c1cnc(Sc3ccccc3Cl)cn1)CC2` [Example 63, (S)-1-(5-((2-chlorophenyl)thio)pyrazin-2-yl)-4′H,6′H-spiro[piperidine-4,5′-pyrrolo[1,2-b]pyrazol]-4′-amine], the IC50 was < 100 nM in experiment [1] and ≤ 50 nM in experiment [2].

Consider `COc1ccc(Sc2cnc(N3CCC4(CC3)Cn3nccc3[C@H]4N)cn2)c(F)c1` [Example 64, (S)-1-(5-((2-fluoro-4-methoxyphenyl)thio)pyrazin-2-yl)-4′H,6′H-spiro[piperidine-4,5′-pyrrolo[1,2-b]pyrazol]-4′-amine], for which the IC50 in experiment [1] is < 100 nM; in experiment [2] it was ≤ 50 nM.
